Reference: ChEMBL document CHEMBL6087478, “Chain Length Does Matter: Development of High-Potency QS-21-Based Vaccine Adjuvants” (J Med Chem, 2025)
The source made the active and inactive calls. The calls are words filed in the database; no cut-off is given here.

Legend:
Mus musculus [1] = experiment: Adjuvant activity in OVA-immunized female C57BL/6 mouse assessed as increase in serum IgG anti-OVA antibody response at 50 ug, IM co-administered with OVA antigen on day 0,7 and 14 and measured on day 21 by ELISA method; format: functional, organism-based; conditions: dose 50.0 µg, time 21.0 day
Mus musculus [2] = experiment: Adjuvant activity in OVA-immunized female C57BL/6 mouse assessed as induction of antigen-specific Th1 immune responses by measuring increase in anti-OVA specific IgG1 in serum at 50 ug, IM co-administered with OVA antigen on day 0,7 and 14 and measured on day 21 by ELISA method; format: functional, organism-based; conditions: dose 50.0 µg, time 21.0 day
Mus musculus [3] = experiment: Adjuvant activity in OVA-immunized female C57BL/6 mouse assessed as induction of antigen-specific Th1 immune responses by measuring increase in anti-OVA specific IgG2b in serum at 50 ug, IM co-administered with OVA antigen on day 0,7 and 14 and measured on day 21 by ELISA method; format: functional, organism-based; conditions: dose 50.0 µg, time 21.0 day
Mus musculus [4] = experiment: Adjuvant activity in OVA-immunized female C57BL/6 mouse assessed as induction of antigen-specific Th2 immune responses by measuring increase in anti-OVA specific IgG1 in serum at 50 ug, IM co-administered with OVA antigen on day 0,7 and 14 and measured on day 21 by ELISA method; format: functional, organism-based; conditions: dose 50.0 µg, time 21.0 day
Mus musculus [5] = experiment: Adjuvant activity in OVA-immunized female C57BL/6 mouse assessed as induction of antigen-specific Th2 immune responses by measuring increase in anti-OVA specific IgG2b in serum at 50 ug, IM co-administered with OVA antigen on day 0,7 and 14 and measured on day 21 by ELISA method; format: functional, organism-based; conditions: dose 50.0 µg, time 21.0 day
Mus musculus [6] = experiment: Adjuvant activity in OVA-immunized female C57BL/6 mouse assessed as increase in serum IgG anti-OVA antibody response at 5 ug, IM co-administered with OVA antigen on day 0,7 and 14 and measured on day 14,28 and 42 by ELISA method; format: functional, organism-based; conditions: dose 5.0 µg, time 42.0 day
Mus musculus [7] = experiment: Adjuvant activity in OVA-immunized female C57BL/6 mouse assessed as increase in serum IgG1 at low dose administered as IM dose co-administered with OVA antigen on day 0,7 and 14 and measured on day 14,28 and 42 by ELISA method; format: functional, organism-based; conditions: time 42.0 day
Mus musculus [8] = experiment: Adjuvant activity in OVA-immunized female C57BL/6 mouse assessed as increase in serum IgG2b at low dose administered as IM dose co-administered with OVA antigen on day 0,7 and 14 and measured on day 14,28 and 42 by ELISA method; format: functional, organism-based; conditions: time 42.0 day
[9] = Toxicity in C57BL/6 mouse assessed as effect on body weight change at 50 ug, IM in presence of KLH measured upto 7 days; conditions: in vivo, 168 h, dose 50 µg, time < 7 day
Mus musculus [10] = experiment: Potency index ratio of QS21 to test compound for adjuvant activity in KLH-immunized female C57BL/6 mouse assessed as increase in serum IgG anti-KLH antibody titer at 50 ug, IM co-administered with KLH-antigen on day 0,7 and 14 and measured on day 14,28 and 42 by ELISA method; format: functional; conditions: dose 50 µg, time 42 day
[11] = Toxicity in C57BL/6 mouse assessed as effect on body weight change at 50 ug, IM in presence of OVA-antigen measured upto 7 days; conditions: in vivo, 168 h, dose 50 µg, time < 7 day
Mus musculus [12] = experiment: Adjuvant activity in OVA-immunized female C57BL/6 mouse assessed as increase in IgG antibody titer at low dose administered as IM co-administered with OVA antigen on day 0,7 and 14 and measured on day 14,28,42 by ELISA method; format: functional, organism-based; conditions: time 42.0 day
Mus musculus [13] = experiment: Adjuvant activity in OVA-immunized female C57BL/6 mouse assessed as increase in IgG2b antibody titer at low dose administered as IM co-administered with OVA antigen on day 0,7 and 14 and measured on day 14,28,42 by ELISA method; format: functional, organism-based; conditions: time 42.0 day
[14] = Toxicity in C57BL/6 mouse assessed as effect on body weight change at 20 ug, sc in presence of OVA-antigen measured upto 7 days; format: organism-based; conditions: in vivo, 168 h, dose 20 µg, time < 7 day
Mus musculus [15] = experiment: Adjuvant activity in OVA-immunized female C57BL/6 mouse assessed as increase IgG antibody titer at 20 ug, sc co-administered with OVA antigen on day 0,7 and 14 and measured on day 14,28,42 by ELISA method; format: functional, organism-based; conditions: dose 20.0 µg, time 42.0 day
Mus musculus [16] = experiment: Adjuvant activity in OVA-immunized female C57BL/6 mouse assessed as increase IgG2b antibody titer at 20 ug, sc co-administered with OVA antigen on day 0,7 and 14 and measured on day 14,28,42 by ELISA method; format: functional, organism-based; conditions: dose 20.0 µg, time 42.0 day
[17] = Toxicity in C57BL/6 mouse assessed as effect on body weight change at 50 ug, sc in presence of OVA-antigen measured upto 7 days; format: organism-based; conditions: in vivo, 168 h, dose 50 µg, time < 7 day
Mus musculus [18] = experiment: Adjuvant activity in OVA-immunized female C57BL/6 mouse assessed as increase IgG antibody titer at 50 ug, sc co-administered with OVA antigen on day 0,7 and 14 and measured on day 14,28,42 by ELISA method; format: functional, organism-based; conditions: dose 50.0 µg, time 42.0 day
Mus musculus [19] = experiment: Adjuvant activity in OVA-immunized female C57BL/6 mouse assessed as increase IgG2b antibody titer at 50 ug, sc co-administered with OVA antigen on day 0,7 and 14 and measured on day 14,28,42 by ELISA method; format: functional, organism-based; conditions: dose 50.0 µg, time 42.0 day
Mus musculus [20] = experiment: Adjuvant activity in KLH-immunized female C57BL/6 mouse assessed as increase in serum IgG anti-KLH antibody titer at 50 ug, IM co-administered with KLH-antigen on day 0,7 and 14 and measured on day 14,28 and 42 by ELISA method; format: functional, organism-based; conditions: dose 50.0 µg, time 42.0 day
Mus musculus [21] = experiment: Adjuvant activity in OVA-immunized female C57BL/6 mouse assessed as increase in IgG antibody titer at 50 ug, IM co-administered with OVA antigen on day 0,7 and 14 and measured on day 14,28,42 by ELISA method; format: functional, organism-based; conditions: dose 50.0 µg, time 42.0 day
Mus musculus [22] = experiment: Adjuvant activity in OVA-immunized female C57BL/6 mouse assessed as increase in IgG2b antibody titer at 50 ug, IM co-administered with OVA antigen on day 0,7 and 14 and measured on day 14,28,42 by ELISA method; format: functional, organism-based; conditions: dose 50.0 µg, time 42.0 day

C[C@@H]1O[C@@H](O[C@H]2[C@H](OC(=O)[C@]34CCC(C)(C)C[C@H]3C3=CC[C@@H]5[C@@]6(C)CC[C@H](O)[C@@](C)(C=O)[C@@H]6CC[C@@]5(C)[C@]3(C)CC4)O[C@H](CO)[C@H](NC(=O)CCCCCCCCCCCCCCC(=O)O)[C@@H]2O)[C@H](O)[C@H](O)[C@H]1O[C@@H]1OC[C@@H](O)[C@H](O)[C@H]1O
Activity (Mus musculus [1]): Active | Activity (Mus musculus [2]): Active | Activity (Mus musculus [3]): Active | Activity (Mus musculus [4]): Active | Activity (Mus musculus [5]): Active | Activity (Mus musculus [6]): Active | Activity (Mus musculus [7]): Active | Activity (Mus musculus [8]): Active | Activity [9]: Non-toxic | fold change (FC) (Mus musculus [10]): 10 | Activity [11]: Non-toxic | Activity (Mus musculus [12]): Active | Activity (Mus musculus [13]): Active | Activity [14]: Non-toxic | Activity (Mus musculus [15]): Active | Activity (Mus musculus [16]): Active

CC1(C)CC[C@]2(C(=O)O[C@@H]3O[C@H](CO)[C@@H](O)[C@H](O[C@@H]4O[C@H](CO)[C@@H](O)[C@H](O[C@@H]5O[C@H](CO)[C@@H](O)[C@H](O[C@@H]6O[C@H](CO)[C@@H](O)[C@H](O[C@@H]7O[C@H](CO)[C@@H](O)[C@H](O)[C@H]7O)[C@H]6O)[C@H]5O)[C@H]4O)[C@H]3O)[C@H](O)C[C@]3(C)C(=CC[C@@H]4[C@@]5(C)CC[C@H](O[C@@H]6O[C@H](CO)[C@@H](O)[C@H](O[C@@H]7O[C@H](CO)[C@@H](O)[C@H](O[C@@H]8O[C@H](CO)[C@@H](O)[C@H](O)[C@H]8O)[C@H]7O)[C@H]6O)[C@@](C)(C=O)[C@@H]5CC[C@]43C)[C@@H]2C1
Activity (Mus musculus [15]): Active | Activity (Mus musculus [16]): Active

C[C@@H]1O[C@@H](O[C@H]2[C@H](OC(=O)[C@]34CCC(C)(C)C[C@H]3C3=CC[C@@H]5[C@@]6(C)CC[C@H](O)[C@@](C)(C=O)[C@@H]6CC[C@@]5(C)[C@]3(C)CC4)O[C@H](CO)[C@H](NC(=O)CCCCCCCCCCC(=O)O)[C@@H]2O)[C@H](O)[C@H](O)[C@H]1O[C@@H]1OC[C@@H](O)[C@H](O)[C@H]1O
Activity [17]: Non-toxic | Activity (Mus musculus [18]): Active | Activity (Mus musculus [19]): Active

C[C@@H]1O[C@@H](O[C@H]2[C@H](OC(=O)[C@]34CCC(C)(C)C[C@H]3C3=CC[C@@H]5[C@@]6(C)CC[C@H](O)[C@@](C)(C=O)[C@@H]6CC[C@@]5(C)[C@]3(C)CC4)O[C@H](CO)[C@H](NC(=O)CCCCCCCCCCCCC(=O)O)[C@@H]2O)[C@H](O)[C@H](O)[C@H]1O[C@@H]1OC[C@@H](O)[C@H](O)[C@H]1O
Activity (Mus musculus [1]): Active | Activity (Mus musculus [2]): Active | Activity (Mus musculus [3]): Active | Activity (Mus musculus [4]): Active | Activity (Mus musculus [5]): Active | Activity [9]: Non-toxic | Activity (Mus musculus [20]): Active | Activity [11]: Non-toxic | Activity (Mus musculus [21]): Active | Activity (Mus musculus [22]): Active | Activity [17]: Non-toxic | Activity (Mus musculus [18]): Active | Activity (Mus musculus [19]): Active
